{"source": "patent USRE49873E1", "about": "“APP specific bace inhibitors (ASBIs) and uses thereof” (BUCK INSTITUTE FOR RESEARCH ON AGING, priority 2012, dated 2024)", "key": {"[1]": {"molecular_target": "T1, BACE cleavage of the P5-P5′ substrate (Homo sapiens, UniProt P56817)", "T1 construct": "purchased Sigma-Aldrich (kit); R&D (HTS description) CS0010; 931-AS-050", "T1 sequence (P56817 46-501)": "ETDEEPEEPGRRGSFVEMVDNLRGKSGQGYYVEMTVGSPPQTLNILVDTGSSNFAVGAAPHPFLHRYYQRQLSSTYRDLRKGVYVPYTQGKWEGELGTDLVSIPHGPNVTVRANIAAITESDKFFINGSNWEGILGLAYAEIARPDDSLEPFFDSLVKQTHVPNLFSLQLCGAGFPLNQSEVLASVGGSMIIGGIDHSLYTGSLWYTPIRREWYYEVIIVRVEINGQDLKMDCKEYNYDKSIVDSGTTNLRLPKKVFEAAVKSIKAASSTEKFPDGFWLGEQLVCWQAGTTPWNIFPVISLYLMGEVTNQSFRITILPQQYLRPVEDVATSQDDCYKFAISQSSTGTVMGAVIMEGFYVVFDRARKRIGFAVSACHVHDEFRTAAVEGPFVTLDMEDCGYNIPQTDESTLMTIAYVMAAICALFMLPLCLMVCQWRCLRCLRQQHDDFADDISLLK", "test": "ASBI assay b): P5-P5′ fluorescence substrate cleavage assay", "assay_type": "biochemical", "conditions": "flavonoids at 100 uM", "description": "As illustrated in the Examples, in one embodiment, an MBP-C125 APP695 wt fusion protein can be used as one of the substrates. The second substrate can be the commercially available P5-P5′ fluorescence substrate. Each of these substrates is incubated with recombinant BACE (R&D (cat#931-AS-050) in, for example, a 96 well plate format. For the MBP-C125 substrate the C-99 product from the BACE cleavage can be measured using an AlphaLisa assay as a readout. For the P5-5′ substrate the […] upon BACE cleavage can be used as the readout. An ASBI would inhibit the BACE cleavage of the MBP-C125 substrate while not being inhibitory of the fluorescence substrate. […]\nA primary high-throughput screening (HTS) assay was set up for identification of ASBIs using a dual-substrate testing paradigm (FIGS. 3A & 3B). The previously reported (Sinha et al. (1999) Nature, 402: 537-540) BACE substrate the MBP-C125 APP695 wt fusion protein consisting of maltose binding protein fused to the carboxyterminal 125 amino acids of wild type APP, was used as the primary substrate; and the commercially available P5-P5′ fluorescence substrate, derived from the P5-P5′ residues of the BACE cleavage site of APP, was used as the secondary substrate. […]"}, "[2]": {"system": "β-CTF production in CHO cells stably over-expressing human APP", "test": "β-CTF western blot in CHO cells over-expressing human APP", "assay_type": "cell-based, Chinese Hamster", "conditions": "10 μM, 24 hr, western blot of cell lysates", "description": "(§1) Chinese Hamster Ovary (CHO) cells stably over-expressing human APP were treated with 10 μM Galangin or DMSO for 24 hr, then the cell lysates and conditioned media were collected. The levels of full length APP and β-CTF in the cell lysates and the levels of sAPPα in the conditioned media were detected by western blot. […] BACE1-dependent cleavage of SEAP-NRG1-β1 was evaluated by SEAP assays with supernatants of control human embryonic kidney 293 (HEK293) cells (SEAP-NRG1-β1) or HEK293 cells co-expressing BACE1 (SEAP-NRG1-β1+BACE1), treated with DMSO or Galangin (10 μM). An increase in shedding of the SEAP-NRG1-b1 fusion protein was measured upon BACE1 co-expression. Shedding in co-expressing cells was not suppressed by Galangin. Error bars indicate SEM. (N.S., p>0.05; n=4, student t test).\nThe Chinese Hamster Ovary (CHO) cell line over-expressing human AβPP (7 W) was kindly provided by Dr. Edward Koo. Plasmid constructs were transiently transfected into HEK293T or 7 W cells with Lipofectamine 2000 (Invitrogen). Western Blot analysis was performed as previously described (Swistowski et al. (2009) J. Neurosci., 29: 15703-15712). Briefly, 48 hr after transfection, cells were harvested and lysed in NP-40 Cell Lysis Buffer (50 mM TrisHCl, pH 8.0, 150 mM NaCl and 1% NP-40). Cell lysates were mixed with 1×LDS loading buffer (Invitrogen) and 50 mM DTT, and boiled at 100° C. for 10 min. […]"}, "[3]": {"system": "BACE1 cleavage of neuregulin1 in HEK293 cells", "test": "Neuregulin1 shedding assay (SEAP-NRG1-β1)", "assay_type": "cell-based, human", "conditions": "10 μM, HEK293 cells co-expressing BACE1", "description": "as §1\nA cDNA construct encoding a human placental secreted alkaline phosphatase (SEAP)-NRG1 (pAPtag5-NRG1-β1) fusion protein was transfected in HEK293 cells in a 6-well format with or without full-length wild-type BACE1 using Lipofectamine 2000 (Invitrogen) as described previously (Vassar et al. (1999) Science, 286: 735-741). After transfection the medium was replaced with DMEM containing 10% heat-inactivated Fetal Bovine Serum and incubated for 24 hr. SEAP activity was measured in the conditioned medium. […] The absorbance was read at 405 nm. […]"}, "[4]": {"system": "Aβ1-40 and Aβ1-42 levels in hippocampal/entorhinal cortical tissue", "test": "Pilot efficacy testing in PDAPP (J20) AD model mice, Aβ ELISA", "assay_type": "in vivo", "conditions": "40 mpk sc daily for 14 days, hippocampus and cortex", "description": "Galangin and progalangin (PG-1) were dissolved in 10% solutol/15% DMSO/75% polyethylene glycol (PEG). Stock solutions were prepared at 10 mg/ml for each compound and 100 ul was injected subcutaneously daily for 14 days at a dose of 40 mkd. There were 5 PDAPP AD model J20 mice in both the galangin and progalangin groups, and 9 vehicle-only treated J20 controls. Mice were anesthetized, blood collected for plasma, and brain tissue collected as described above 2 hours after injection on the last day of treatment. The right hemibrain was further microdissected to isolate hippocampus and entorhinal cortex and this combined tissue was used for biochemical analysis. The remaining tissue and plasma was sent to IAS for compound level analysis.\nAβ1-42 and Aβ1-40 levels were determined using the hippocampal/entorhinal cortical tissue. Briefly, frozen tissue samples were weighed, and a 20% w/v sonicate prepared in 5M guandine-HCl/50 mM Tris, pH8. Sonication was performed with sample tubes in ice water, 4×5 seconds at 60 Hz, then 3×5 seconds at 80 Hz. Samples were then rotated at room temperature for 3 hours and frozen at −20° C. until assay. Invitrogen ELISA kits were used for Aβ1-40 and Aβ1-42 according to the manufacturer's instructions."}, "autophagy": {"system": "autophagy", "conditions": "Wen et al. (2012); cited from earlier work"}}, "note": "“Also recorded” adds a separate entry of the source."}
{"molecule": "O=c1c(O)c(-c2ccccc2)oc2cc(O)cc(O)c12", "note": "[Galangin]", "values": [{"measurement": "inhibition of BACE cleavage of the P5-P5′ substrate", "setting": "[1]", "value": "showing no inhibition of the P5-P5′ substrate"}, {"measurement": "β-CTF production", "setting": "[2]", "value": "inhibits β-CTF production"}, {"measurement": "BACE1-dependent shedding of SEAP-NRG1-β1", "setting": "[3]", "value": "does not inhibit BACE1 cleavage of neuregulin1"}, {"measurement": "Aβ1-42 (Aβ42) levels in brain", "setting": "[4]", "value": "unchanged"}, {"measurement": "Aβ1-40 (Aβ40) levels in brain", "setting": "[4]; 40 mg/kg", "value": "some reduction of Aβ40; also recorded: slightly lower"}, {"measurement": "induction of autophagy", "setting": "autophagy", "value": "induce autophagy"}]}
